Measurements as given in patent US20120328569A1, “INHIBITORS OF HEPATITIS C VIRUS NS5B POLYMERASE” (priority 2010, published 2012).

The compounds below were run on HCV genotype 1b replicon (assay: HCV replicon assay, cell ELISA with antibody to replicon-encoded NS3/4A (genotype 1b replicon)). Conditions: Hepatitis C virus, 96 h, read-out: 1b IC50(nM), HCV genotype 1b replicon; 96 hours incubation; NS3/4A cell ELISA.
Assay type: cell-based, hepatitis C virus
Method in brief: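 An ELISA on lysed cells, using an antibody against NS3/4A protease, served as the proxy for replicon RNA. Cells had first been exposed for 96 h to serially diluted compound in G418-free conditions. Percent of DMSO control was fitted with a four-parameter function to give IC50.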

Structure (SMILES)	IC50 [nM]
CNC(=O)c1c(-c2ccc(F)cc2)oc2cc(N(CCC(C)(C)O)S(C)(=O)=O)c(-c3cc(F)cc(-c4nc5ncccc5o4)c3)cc12 [Example 879]	2.6
CNC(=O)c1c(-c2ccc(F)cc2)oc2cc(N(C)S(C)(=O)=O)c(-c3ccc(OC)c(-c4nc5ccc(-c6cncnc6)cc5o4)c3)cc12 [Example 658, 2-(4-fluorophenyl)-5-(4-methoxy-3-(6-(pyrimidin-5-yl)benzo[d]oxazol-2-yl)phenyl)-N-methyl-6-(N-methylmethylsulfonamido) benzofuran-3-carboxamide]	8.53
CNC(=O)c1c(-c2ccc(F)cc2)oc2cc(N(CC3CC(O)C3)S(C)(=O)=O)c(-c3ccc(OC)c(-c4nc5c(F)cccc5o4)c3)cc12 (stereo not shown) [Example 701]	6.21

Same assay, conditions: Hepatitis C virus, 96 h, read-out: Replicon 1b IC50 (nM), HCV genotype 1b replicon cells, 96 hours incubation, NS3/4A ELISA readout

Structure (SMILES)	IC50 [nM]
CONC(=O)c1c(-c2ccc(F)cc2)oc2cc(N(CCN(C)c3ccccc3)S(C)(=O)=O)c(-c3ccccc3)cc12 [Example 8, 2-(4-fluorophenyl)-N-methoxy-6-[{2-[methyl(phenyl)amino]ethyl} (methylsulfonyl)amino]-5-phenyl-1-benzofuran-3-carboxamide]	276
CNC(=O)c1c(-c2ccc(F)cc2)oc2cc(N(C)S(C)(=O)=O)c(-c3ccc(F)c(-c4nc5ccccc5o4)c3)cc12 [Example 168]	3.9
CNC(=O)c1c(-c2ccc(F)cc2)oc2cc(N(C)S(C)(=O)=O)c(-c3cc(F)cc(-c4nc5cc(Cl)ccc5o4)c3)cc12 [Example 162]	8.2
CCOC(=O)CN(c1cc2oc(-c3ccc(F)cc3)c(C(=O)NC)c2cc1-c1ccccc1)S(C)(=O)=O [Example 41, ethyl N-[2-(4-fluorophenyl)-3-(methylcarbamoyl)-5-phenyl-1-benzofuran-6-yl]-N-(methylsulfonyl) glycinate]	> 2000
CNC(=O)c1c(-c2ccc(F)cc2)oc2cc(N(C)S(C)(=O)=O)c(-c3ccc(F)c(-c4nc5cccnc5[nH]4)c3)cc12 [Example 308]	2.5
CNC(=O)c1c(-c2ccc(F)cc2)oc2cc(N(C)S(C)(=O)=O)c(-c3cccc(-c4nc5ccc(F)cc5o4)c3)cc12 [Example 159]	1.8
CNC(=O)c1c(-c2ccc(F)cc2)oc2cc(N(CC3CCCCC3)S(C)(=O)=O)c(-c3ccccc3)cc12 [Example 13, 6-[(cyclohexylmethyl)(methylsulfonyl)amino]-2-(4-fluorophenyl)-N-methyl-5-phenyl-1-benzofuran-3-carboxamide]	84
CNC(=O)c1c(-c2ccc(F)cc2)oc2cc(N(C)S(C)(=O)=O)c(-c3cc(C#N)cc(-c4nc5cccnc5[nH]4)c3)cc12 [Example 323]	2.4
CNC(=O)c1c(-c2ccc(F)cc2)oc2cc(N(C)S(C)(=O)=O)c(-c3cc(C#N)cc(-c4nc5ccc(OC)nc5[nH]4)c3)cc12 [Example 324]	3.5
CNC(=O)c1c(-c2ccc(F)cc2)oc2cc(N(C)S(C)(=O)=O)c(-c3cccc(-c4nc5cc(Cl)cnc5o4)c3)cc12 [Example 223]	10
CNC(=O)c1c(-c2ccc(F)cc2)oc2cc(N(C)S(C)(=O)=O)c(-c3cc(OC)c(OC)c(-c4nc5ncccc5o4)c3)cc12 [Example 234]	2.7
CONC(=O)c1c(-c2ccc(F)cc2)oc2cc(N(C)S(C)(=O)=O)c(-c3cccc(C)c3)cc12 [Example 92, 2-(4-fluorophenyl)-N-methoxy-6-[methyl (methylsulfonyl)amino]-5-(3-methylphenyl)-1-benzofuran-3-carboxamide]	252
CNC(=O)c1c(-c2ccc(F)cc2)oc2cc(N(CC(C)C)S(C)(=O)=O)c(-c3ccccc3)cc12 [Example 16, 2-(4-fluorophenyl)-N-methyl-6-[(2-methylpropyl) (methylsulfonyl)amino]-5-phenyl-1-benzofuran-3-carboxamide]	68
